What was measured:
[1] = molecular target: T1, Endonuclease III-like protein 1 (Homo sapiens) (UniProt P78549); settings: Hit No;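 also: enzyme assay tracking NTHL1 cutting and release of a quenched double-stranded DNA oligo substrate, read as fluorescence at 594 nm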
T1 sequence (whole entry): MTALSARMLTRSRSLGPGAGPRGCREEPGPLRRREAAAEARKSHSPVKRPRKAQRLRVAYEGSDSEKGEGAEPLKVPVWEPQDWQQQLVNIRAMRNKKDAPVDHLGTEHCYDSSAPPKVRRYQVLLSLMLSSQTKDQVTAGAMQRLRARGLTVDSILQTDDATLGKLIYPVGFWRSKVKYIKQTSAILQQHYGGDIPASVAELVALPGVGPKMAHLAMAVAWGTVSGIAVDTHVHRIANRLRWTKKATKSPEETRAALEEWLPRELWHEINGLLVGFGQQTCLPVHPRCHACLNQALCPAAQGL
Description: Inhibition of NTHL1 by quantifying inhibition of NTHL1-mediated cleavage and dissociation of quenched duplex DNA oligonucleotides, measured as fluorescence at 594 nm.

[2] = molecular target: T2, Single-strand selective monofunctional uracil DNA glycosylase (Homo sapiens) (UniProt Q53HV7); settings: Hit No;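 also: enzymatic SMUG1 assay coupled with APE1, reading fluorescence at 594 nm released when a quenched double-stranded DNA oligonucleotide substrate is cleaved and separated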
T2 sequence (whole entry): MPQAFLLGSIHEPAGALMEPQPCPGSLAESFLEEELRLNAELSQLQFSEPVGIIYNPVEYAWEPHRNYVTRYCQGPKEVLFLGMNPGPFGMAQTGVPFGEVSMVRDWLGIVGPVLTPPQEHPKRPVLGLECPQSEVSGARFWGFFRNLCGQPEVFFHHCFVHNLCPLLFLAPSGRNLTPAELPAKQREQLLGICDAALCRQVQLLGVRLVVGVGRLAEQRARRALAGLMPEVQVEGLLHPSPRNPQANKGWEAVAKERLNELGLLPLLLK
Description: Inhibition of SMUG1 by quantifying inhibition of SMUG1-mediated cleavage and dissociation of quenched duplex DNA oligonucleotides, measured as fluorescence at 594 nm. To generate a functional strand incision and increase turn-over this assay is coupled to APE1.

[3] = molecular target: N-glycosylase/DNA lyase (Homo sapiens) (UniProt O15527);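 also: OGG1 cleavage of a quenched duplex DNA oligonucleotide, coupled to APE1 for strand incision, read as fluorescence at 594 nm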
N-glycosylase/DNA lyase (Homo sapiens), sequence (O15527 whole entry): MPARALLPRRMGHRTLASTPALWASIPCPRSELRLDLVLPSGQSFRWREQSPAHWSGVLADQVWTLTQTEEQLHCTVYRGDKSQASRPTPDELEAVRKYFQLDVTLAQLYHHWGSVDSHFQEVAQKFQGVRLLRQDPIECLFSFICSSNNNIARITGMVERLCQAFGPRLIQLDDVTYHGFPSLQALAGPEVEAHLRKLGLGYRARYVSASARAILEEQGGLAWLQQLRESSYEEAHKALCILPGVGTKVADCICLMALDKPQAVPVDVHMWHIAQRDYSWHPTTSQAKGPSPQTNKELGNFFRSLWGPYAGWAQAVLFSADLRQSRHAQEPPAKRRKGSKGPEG
Description: Inhibition of OGG1 by quantifying inhibition of OGG1-mediated cleavage and dissociation of quenched duplex DNA oligonucleotides, measured as fluorescence at 594 nm. To generate a functional strand incision and increase turn-over this assay is coupled to APE1.

[4] = molecular target: Uracil-DNA glycosylase (Homo sapiens) (UniProt P13051); settings: Hit No;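 also: UNG excision on a quenched double-stranded DNA oligo probe, with APE1 added for strand incision and turnover, read as fluorescence at 594 nm as strands separate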
Uracil-DNA glycosylase (Homo sapiens), sequence (P13051 whole entry): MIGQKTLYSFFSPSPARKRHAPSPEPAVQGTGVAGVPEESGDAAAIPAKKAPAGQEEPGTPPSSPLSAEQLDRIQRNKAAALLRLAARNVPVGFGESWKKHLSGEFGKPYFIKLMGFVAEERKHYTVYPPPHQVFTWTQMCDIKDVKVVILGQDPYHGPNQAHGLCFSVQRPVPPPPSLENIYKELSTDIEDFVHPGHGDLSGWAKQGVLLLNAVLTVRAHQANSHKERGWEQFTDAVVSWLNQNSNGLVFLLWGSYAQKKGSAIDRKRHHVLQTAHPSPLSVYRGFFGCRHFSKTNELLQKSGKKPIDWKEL
Description: Inhibition of UNG by quantifying inhibition of UNG-mediated cleavage and dissociation of quenched duplex DNA oligonucleotides, measured as fluorescence at 594 nm. To generate a functional strand incision and increase turn-over this assay is coupled to APE1.

[5] = molecular target: T3, Endonuclease 8-like 2 (Homo sapiens) (UniProt Q969S2);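 also: fluorescence at 594 nm reports NEIL2 cutting and release of a quenched double-stranded DNA oligo substrate, reduced signal read as inhibition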
T3 sequence (whole entry): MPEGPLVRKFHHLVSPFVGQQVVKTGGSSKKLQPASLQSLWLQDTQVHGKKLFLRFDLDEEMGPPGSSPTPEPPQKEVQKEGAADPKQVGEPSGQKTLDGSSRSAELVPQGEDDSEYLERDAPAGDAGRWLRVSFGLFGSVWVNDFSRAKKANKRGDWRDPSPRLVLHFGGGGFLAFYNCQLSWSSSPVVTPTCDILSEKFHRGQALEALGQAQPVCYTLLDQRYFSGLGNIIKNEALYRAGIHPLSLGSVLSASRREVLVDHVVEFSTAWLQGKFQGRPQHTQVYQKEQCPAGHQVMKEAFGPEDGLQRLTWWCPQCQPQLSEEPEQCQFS
Description: Inhibition of NEIL2 by quantifying inhibition of NEIL2-mediated cleavage and dissociation of quenched duplex DNA oligonucleotides, measured as fluorescence at 594 nm.

[6] = molecular target: Methyl-CpG-binding domain protein 4 (Homo sapiens) (UniProt O95243); settings: Hit No;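 also: MBD4 activity read as fluorescence at 594 nm from cleavage and release of a quenched duplex DNA oligonucleotide, with APE1 coupled to incise the strand and raise turnover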
Methyl-CpG-binding domain protein 4 (Homo sapiens), sequence (O95243 whole entry, the tested form may be a part): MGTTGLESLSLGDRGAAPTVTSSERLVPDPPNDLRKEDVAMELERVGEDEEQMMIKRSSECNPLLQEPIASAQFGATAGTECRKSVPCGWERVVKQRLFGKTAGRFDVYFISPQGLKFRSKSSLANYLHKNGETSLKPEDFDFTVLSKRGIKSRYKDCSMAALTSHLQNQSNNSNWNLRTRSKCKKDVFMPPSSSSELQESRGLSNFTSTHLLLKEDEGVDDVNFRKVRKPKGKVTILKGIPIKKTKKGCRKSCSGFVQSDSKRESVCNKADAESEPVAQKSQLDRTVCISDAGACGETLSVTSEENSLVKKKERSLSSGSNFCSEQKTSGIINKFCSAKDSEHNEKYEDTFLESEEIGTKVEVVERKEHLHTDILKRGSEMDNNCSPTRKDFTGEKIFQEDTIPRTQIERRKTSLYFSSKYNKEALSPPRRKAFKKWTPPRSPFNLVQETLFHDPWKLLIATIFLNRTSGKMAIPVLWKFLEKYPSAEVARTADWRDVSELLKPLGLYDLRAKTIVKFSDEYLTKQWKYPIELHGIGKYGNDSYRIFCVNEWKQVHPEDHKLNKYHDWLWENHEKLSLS
Description: Inhibition of MBD4 by quantifying inhibition of MBD4-mediated cleavage and dissociation of quenched duplex DNA oligonucleotides, measured as fluorescence at 594 nm. To generate a functional strand incision and increase turn-over this assay is coupled to APE1.

[7] = molecular target: Endonuclease 8-like 1 (Homo sapiens) (UniProt Q96FI4); settings: Hit No;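 also: fluorescence at 594 nm from quenched duplex DNA oligonucleotides released by NEIL1 cleavage and strand separation, reported as reduction of this enzyme activity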
Endonuclease 8-like 1 (Homo sapiens), sequence (Q96FI4 whole entry): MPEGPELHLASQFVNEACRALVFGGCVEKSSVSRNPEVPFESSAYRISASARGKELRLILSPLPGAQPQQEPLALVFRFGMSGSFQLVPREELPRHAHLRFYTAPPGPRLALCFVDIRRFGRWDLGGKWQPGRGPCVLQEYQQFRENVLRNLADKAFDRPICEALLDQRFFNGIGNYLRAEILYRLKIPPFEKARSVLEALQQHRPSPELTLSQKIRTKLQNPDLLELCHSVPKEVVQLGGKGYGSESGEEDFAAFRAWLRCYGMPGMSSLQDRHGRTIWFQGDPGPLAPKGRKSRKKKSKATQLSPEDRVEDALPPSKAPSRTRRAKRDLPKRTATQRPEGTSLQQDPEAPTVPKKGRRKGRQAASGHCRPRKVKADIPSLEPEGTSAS
Description: Inhibition of NEIL1 by quantifying inhibition of NEIL1-mediated cleavage and dissociation of quenched duplex DNA oligonucleotides, measured as fluorescence at 594 nm.

[8] = molecular target: G/T mismatch-specific thymine DNA glycosylase (Homo sapiens) (UniProt Q13569); settings: Hit No;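 also: human TDG cleavage of quenched duplex DNA oligonucleotides coupled to APE1, strand release read as fluorescence at 594 nm, inhibition of TDG activity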
G/T mismatch-specific thymine DNA glycosylase (Homo sapiens), sequence (Q13569 whole entry): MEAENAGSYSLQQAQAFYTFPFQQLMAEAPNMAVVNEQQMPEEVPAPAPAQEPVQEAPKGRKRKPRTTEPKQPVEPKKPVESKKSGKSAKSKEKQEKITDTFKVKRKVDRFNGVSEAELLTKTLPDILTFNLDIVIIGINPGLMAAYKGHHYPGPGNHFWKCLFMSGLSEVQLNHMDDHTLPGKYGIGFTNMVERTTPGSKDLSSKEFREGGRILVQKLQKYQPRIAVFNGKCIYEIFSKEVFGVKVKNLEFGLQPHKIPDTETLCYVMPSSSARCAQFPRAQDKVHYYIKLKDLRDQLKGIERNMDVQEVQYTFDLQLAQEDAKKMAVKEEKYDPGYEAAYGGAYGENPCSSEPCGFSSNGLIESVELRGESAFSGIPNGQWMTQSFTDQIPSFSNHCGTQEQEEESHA
Description: Inhibition of TDG by quantifying inhibition of TDG-mediated cleavage and dissociation of quenched duplex DNA oligonucleotides, measured as fluorescence at 594 nm. To generate a functional strand incision and increase turn-over this assay is coupled to APE1.

[9] = molecular target: T4, Adenine DNA glycosylase (Homo sapiens) (UniProt Q9UIF7);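 also: human MUTYH activity read as 594 nm fluorescence from cleavage and release of a quenched DNA duplex, coupled with APE1 for strand incision, lower signal meaning inhibition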
T4 sequence (whole entry): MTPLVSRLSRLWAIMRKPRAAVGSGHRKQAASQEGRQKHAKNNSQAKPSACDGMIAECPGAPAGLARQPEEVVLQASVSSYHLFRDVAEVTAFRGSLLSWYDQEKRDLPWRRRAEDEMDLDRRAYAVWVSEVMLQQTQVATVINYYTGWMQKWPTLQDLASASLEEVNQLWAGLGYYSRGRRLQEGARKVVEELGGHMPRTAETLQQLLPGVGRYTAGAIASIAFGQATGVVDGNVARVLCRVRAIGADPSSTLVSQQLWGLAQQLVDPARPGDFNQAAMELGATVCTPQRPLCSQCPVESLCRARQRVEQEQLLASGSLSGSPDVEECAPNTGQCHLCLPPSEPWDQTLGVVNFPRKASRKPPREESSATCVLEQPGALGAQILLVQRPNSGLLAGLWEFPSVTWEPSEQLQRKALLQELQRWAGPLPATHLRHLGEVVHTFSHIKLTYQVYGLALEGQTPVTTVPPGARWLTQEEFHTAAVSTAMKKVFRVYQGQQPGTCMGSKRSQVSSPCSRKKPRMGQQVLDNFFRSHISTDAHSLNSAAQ
Description: Inhibition of MUTYH by quantifying inhibition of MUTYH-mediated cleavage and dissociation of quenched duplex DNA oligonucleotides, measured as fluorescence at 594 nm. To generate a functional strand incision and increase turn-over this assay is coupled to APE1.

[10] = Compound Concentration 1.0 uM, Hit No
[11] = Compound Concentration 10.0 uM, Hit No
[12] = Compound Concentration 10.0 uM, Hit Yes
[13] = Compound Concentration 1.0 uM, Hit Yes

Compound | inhibition ([1]; Compound Concentration 10.0 uM) [%] | inhibition ([2]; Compound Concentration 10.0 uM) [%] | inhibition [3, 11] [%] | inhibition ([4]; Compound Concentration 10.0 uM) [%] | inhibition [5, 11] [%] | inhibition ([6]; Compound Concentration 10.0 uM) [%] | inhibition ([7]; Compound Concentration 10.0 uM) [%] | inhibition ([8]; Compound Concentration 10.0 uM) [%] | inhibition [9, 11] [%] | also measured
Nc1ncc2c(n1)-c1c([nH]c3ccc(C4CC4)cc13)CCCC2 |  |  |  |  |  |  |  |  |  | inhibition ([1]; Compound Concentration 1.0 uM): 2.18%; inhibition ([2]; Compound Concentration 1.0 uM): 19.5%; inhibition [3, 10]: 3.08%; inhibition ([4]; Compound Concentration 1.0 uM): 3.77%; inhibition [5, 10]: 0.505%; inhibition ([6]; Compound Concentration 1.0 uM): 4.16%; inhibition ([7]; Compound Concentration 1.0 uM): 2.52%; inhibition ([8]; Compound Concentration 1.0 uM): 29.2%; inhibition [9, 10]: -1.15%
Cc1c(N2CCCC2)nc2ccc(Br)cc2c1C(=O)NC[C@H](CCC(=O)O)c1ccccc1Cl | -1.95 | 12.3 | 31.5 | 5.08 | -0.744 | 69.2 | 3.19 | 54 | 22 | 
O=C(O)C1CN(Cc2ccc(OCc3ccc(Cl)c(Cl)c3)cc2)C1 | 10.7 | 12.8 | -0.266 | -2.44 | -3.23 | 25 | 5.13 | 18.1 | 19.2 | 
Cc1cccc(-c2cnc3occ(-c4ccc(C(=O)O)c(C5CCCC5)c4)c3c2)c1 | 4.27 | 18.9 | 66.5 | -0.203 | -2.46 | 33 | 6.08 | 36.3 | 15.7 | 
Cc1oc2ccccc2c1Cc1cc(I)c(OCC(=O)O)c(I)c1 | 17.8 | 47.4 |  | 6.35 | 3.34 | 67.1 | 0.619 | 98.9 | 29.3 | inhibition [3, 12]: 91.8%
O=c1[nH]c2ccccc2n1CCCN1CCN(C(c2ccccc2)c2ccccc2)CC1 | -3.26 | 20.2 | 10.8 | 4.47 | 5.38 | 57.5 | -7.26 | 97.2 | 1.43 | 
O=C(O)c1ccc(-c2coc3ncc(-c4ccccc4)cc23)cc1Cl | 1.48 | 25.7 | 13.2 | 3.81 | 1.31 | -2.05 | 7.67 | 45.9 | 30.1 | 
CN1CCN(C(=O)c2ccc3cc2OCCOCCNc2ccn4ncc-3c4n2)CC1 | -5.49 | 13.6 | 2.08 | 1.81 | -5.69 | 17.6 | 1.85 | 38.5 | -5.82 | 
Cc1cccc(-c2[nH]c(CNc3ccccc3F)nc2-c2ccc3ncnn3c2)n1 |  |  |  |  |  |  |  |  |  | inhibition ([1]; Compound Concentration 1.0 uM): -6.89%; inhibition ([2]; Compound Concentration 1.0 uM): -5.72%; inhibition [3, 10]: 4.54%; inhibition ([4]; Compound Concentration 1.0 uM): -5.91%; inhibition [5, 10]: 6.16%; inhibition ([6]; Compound Concentration 1.0 uM): 12.7%; inhibition ([7]; Compound Concentration 1.0 uM): -2.11%; inhibition ([8]; Compound Concentration 1.0 uM): 35.6%; inhibition [9, 10]: 6.74%
CCC[C@@H]1CNCc2c1[nH]c(=O)c(C#N)c2N1CCC2(CC1)CC2 | -9.18 | 17.4 | 27.9 | 2.58 | -5.59 | 65.3 | -1.35 | 98.8 | 7.93 | 
Fc1ccc(-c2c3cccc(C(F)(F)F)c3nn2Cc2ccc(F)cc2Cl)cc1 | -1.29 | 12.2 | 8 | 4.08 | -0.489 | 53.9 | -7.41 | 53.1 | 1.43 | 
CC1(C)CCC(C)(C)c2cc(NC(=O)c3ccc(C(=O)O)cc3)ccc21 | 1.34 | 7.75 | 31.6 | 0.0471 | 4.36 | 58.9 | -4.53 | 47.2 | 0.879 | 
CNCc1ccccc1-c1csc([C@H](C)Nc2nc(C)nc3cc(OC)c(OC)cc23)c1 |  |  |  |  |  |  |  |  |  | inhibition ([1]; Compound Concentration 1.0 uM): 2.66%; inhibition ([2]; Compound Concentration 1.0 uM): 19.4%; inhibition [3, 10]: 6.33%; inhibition ([4]; Compound Concentration 1.0 uM): 6.69%; inhibition [5, 13]: 26.3%; inhibition ([6]; Compound Concentration 1.0 uM): 58.7%; inhibition ([7]; Compound Concentration 1.0 uM): -4.23%; inhibition ([8]; Compound Concentration 1.0 uM): 97.8%; inhibition [9, 13]: 36.2%
COc1cc2nc(N3CCN(C(=O)COc4c(OC)cccc4C(C)C)CC3)nc(N)c2cc1OC | 17.9 | -5.21 | -9.97 | 3.87 |  | -7.62 | 10.1 | 4.22 | -1.51 | inhibition [5, 12]: 50.6%
Oc1ccc2c3c1O[C@H]1c4[nH]c5c(c4C[C@@]4(O)[C@@H](C2)N(CC2CC2)CC[C@]314)C[C@@]1(O)[C@H]2Cc3ccc(O)c4c3[C@@]1(CCN2CC1CC1)[C@H]5O4 | 5.59 | -7.06 | 7.55 | 1.76 | -3.73 | -5.37 | -5.39 | 10.6 | -2.67 | 
CC[C@H](Nc1c(C#N)c(-c2ccc(-c3cccc(C)c3F)cc2)nc2cnccc12)C(=O)O | 5.22 | 12 | 43.2 | 6.04 | -0.764 | 59.4 | 1.86 | 51.7 | 34.2 | 

Source: ChEMBL document CHEMBL5665443, “Enzyme Inhibitor Single Concentration assay results for EUbOPEN Chemogenomics Library” (2024)
